Measurements published in US20240315993A1, “ANTIPARASITIC COMPOUNDS” (Intervet Inc., priority 2021, published 2024).

Experiments:
[1] = tested on: Fly larvae I (Lucilia cuprina); assay: Fly larvae contact/feeding assay; conditions: 48 h, read-out: Inhibition of fly larvae development
Protocol: Fly larvae I (Lucilia cuprina) were grown in medium spiked with declining concentrations of a test compound (dissolved in a DMSO-emulsifier-deionized water mixture). Inhibition of fly larvae development (%) was assessed after approximately 48 hours of continuous exposure. The vitality of used parasites was confirmed in negative control groups (i.e., an untreated control and a solvent control).

[2] = tested on: Ctenocephalides felis fleas; assay: Dog - efficacy against fleas; type: in vivo; conditions: for therapeutic efficacy against fleas (active = efficacy ≥80 percent): D2
Protocol: (§1) Beagle dogs were infested (whole body) with 80 Ctenocephalides felis fleas and 50 Rhipicephalus sanguineus or Haemaphysalis elliptica ticks (sex ratio 1:1) two days before the treatment day (Day 0), and repeatedly thereafter. Dogs of treatment groups were treated with 10 mg/kg bodyweight of a test compound orally (compound weighed in gelatin capsule), topically (spot-on, DMA 92%/DEET 8%) or subcutaneously (PEG 200 90%/water for injection 10%). Dogs of the negative control group received only an empty gelatin capsule orally and the spot-on formulation excipients topically.
(§2) Compounds with efficacy ≥80 percent were found active.

[3] = tested on: Rhipicephalus microplus tick larvae; assay: Tick larvae contact assay; conditions: read-out: Tick inhibition (% of damage+dead ticks)
Protocol: Tick larvae (Rhipicephalus microplus) were immersed for approximately 3 minutes in declining concentrations of a test compound (dissolved in a DMSO-emulsifier-deionized water mixture). Tick inhibition (% of damage+dead ticks per test concentration) was assessed approximately 24 hours after contact exposure. The vitality of used parasites was confirmed in negative control groups (i.e. an untreated control and a solvent control).

Rhipicephalus microplus = assay: Cattle - efficacy against one-host tick; type: in vivo
How it was run: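 Cattle infested whole-body with up to 3000 R. microplus larvae two or three times weekly around Day 0, then given 1 mg/kg subcutaneously or topically (spray or pour-on); controls got excipients only. Engorged females dropping were counted daily; efficacy by ADEQ per WAAVP guidelines, onset/duration as first/last day ≥80%.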

[4] = tested on: Adult fleas (Ctenocephalides felis); assay: Flea feeding assay; conditions: 48 h, read-out: flea inhibition (% of dead+damaged fleas)
Protocol: Adult fleas (Ctenocephalides felis) of defined age were fed on artificial membranes with blood spiked with declining concentrations of a test compound (dissolved in a DMSO-emulsifier-blood mixture). After approximately 48 hours of continuous feeding, flea inhibition (i.e., % of dead+damaged fleas per test concentration) was assessed. The vitality of used parasites was confirmed in negative control groups (i.e., an untreated control and a solvent control).

[5] = tested on: Copepodids (juvenile sea lice stage of Lepeophtheirus salmonis); assay: Juvenile sea lice contact assay; conditions: Lepeophtheirus salmonis, 24 h, read-out: Sea lice inhibition (% of dead+damaged copepodids)
Protocol: Copepodids (juvenile sea lice stage of Lepeophtheirus salmonis) were exposed to seawater spiked with declining concentrations of a test compound (dissolved in a DMSO sea-water mixture). Sea lice inhibition (% of dead+damaged copepodids) was assessed after approximately 24 hours of continuous exposure. The vitality of used parasites was confirmed in a negative (solvent) control group.

[6] = tested on: Rhipicephalus sanguineus or Haemaphysalis elliptica ticks; assay: Dog - efficacy against ticks; type: in vivo; conditions: for therapeutic efficacy against ticks (active = efficacy ≥80 percent): D2
Protocol: as §1, §2

[7] = tested on: juvenile soft ticks (Ornithodoros moubata); assay: Guinea pig - efficacy against argaside tick; type: in vivo
How it was run: (§3)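 Guinea pigs given 5 mg/kg test compound orally (gavage) or s.c. in 10% DMF/emulsifier plus 90% water for injection, with local co-infestations of Ornithodoros moubata juveniles and Cimex lectularius at several post-treatment times. Engorged parasites scored dead/damaged about 24 h after collection; % inhibition versus pretreatment baseline by modified Schneider-Orelli formula.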

[8] = tested on: bed bugs (Cimex lectularius); assay: Guinea pig - efficacy against bed bug; type: in vivo; conditions: for effective to control bed bugs: 5 mg/kg
How it was run: as §3

[9] = tested on: Mobile stages of sea lice (pre-adults, adults of Lepeophtheirus salmonis); assay: Adult sea lice contact assay; conditions: read-out: EC50 (sea lice inhibition, dead+damaged)
Protocol: Mobile stages of sea lice (i.e., pre-adults, adults of Lepeophtheirus salmonis) were exposed to seawater spiked with declining concentrations of a test compound (dissolved in a PEG sea-water mixture). Sea lice inhibition (% of dead+damaged sea lice) was assessed after approximately 1 and 24 hours of continuous exposure in comparison to a negative (solvent) control group.

[10] = tested on: Tick nymphs (stage III, Ornithodoros moubata); assay: Tick feeding assay; conditions: read-out: Tick inhibition (% of damaged+dead ticks at molting-assessment)
Protocol: Tick nymphs (stage III, Ornithodoros moubata) were fed on artificial membranes with blood spiked with declining concentrations of a test compound (dissolved in a DMSO-emulsifier-blood mixture). Fed nymphs were incubated for around 2-3 weeks to enable tick molting into the next stage. Tick inhibition (i.e, % of damaged+dead ticks at molting-assessment per test concentration) was assessed. The vitality of used parasites was confirmed in negative control groups (i.e., an untreated control and a solvent control).

[11] = 1 mg/kg topical (Compound 4: spray solution; others: DMA 92%/DEET 8% pour-on)
[12] = 5 mg/kg subcutaneous, after 7 days
[13] = 5 mg/kg subcutaneous, after 10 days
[14] = 5 mg/kg subcutaneous, after 14 days
[15] = 5 mg/kg subcutaneous, after 17 days

Compound: O=C(Nc1ccc(F)cc1)c1cc(NC(=O)[C@H]2[C@H](c3cc(Cl)cc(Cl)c3)C2(Cl)Cl)ccc1F (racemic) [Compound 4]
- inhibition at 100 ppm [1]: 80%
- efficacy against fleas in dogs (conclusion) ([2]; 10 mg/kg): therapeutic efficacy
- therapeutic efficacy against fleas (active = efficacy ≥80 percent) ([2]; 10 mg/kg oral): active
- therapeutic efficacy against fleas (active = efficacy ≥80 percent) ([2]; 10 mg/kg subcutaneous): active
- active against fleas up to (efficacy ≥80 percent) ([2]; 10 mg/kg subcutaneous, repeated infestations): 86 D
- inhibition at 25 µM [3]: ≥ 80%
- inhibition at 100 ppm [3]: 80%
- duration of efficacy (last Day with efficacy ≥80 percent) (Rhipicephalus microplus; 1 mg/kg subcutaneous): 38 days
- onset of efficacy (first Day with efficacy ≥80 percent) (Rhipicephalus microplus; 1 mg/kg subcutaneous): 2 days
- duration of efficacy (last Day with efficacy ≥80 percent) (Rhipicephalus microplus; [11]): 58 days
- onset of efficacy (first Day with efficacy ≥80 percent) (Rhipicephalus microplus; [11]): 3 days
- inhibition at 1 ppm [4]: 80%
- inhibition at 0.1 µM [5]: ≥ 80%
- efficacy against ticks in dogs (conclusion) ([6]; 10 mg/kg): therapeutic efficacy
- therapeutic efficacy against ticks (active = efficacy ≥80 percent) ([6]; 10 mg/kg oral): active
- therapeutic efficacy against ticks (active = efficacy ≥80 percent) ([6]; 10 mg/kg subcutaneous): active
- activity against tick nymphs (≥80% inhibition, killed+damaged) ([7]; 5 mg/kg oral, Day 0): immediate activity
- activity against tick nymphs (≥80% inhibition, killed+damaged) ([7]; 5 mg/kg oral, after 7 days): activity
- activity against tick nymphs (≥80% inhibition, killed+damaged) ([7]; 5 mg/kg oral, after 10 days): activity
- activity against tick nymphs (≥80% inhibition, killed+damaged) ([7]; 5 mg/kg oral, after 14 days): activity
- activity against tick nymphs (≥80% inhibition, killed+damaged) ([7]; 5 mg/kg subcutaneous, Day 0): immediate activity
- activity against tick nymphs (≥80% inhibition, killed+damaged) [7, 12]: activity
- activity against tick nymphs (≥80% inhibition, killed+damaged) [7, 13]: activity
- activity against tick nymphs (≥80% inhibition, killed+damaged) [7, 14]: activity
- activity against tick nymphs (≥80% inhibition, killed+damaged) [7, 15]: activity
- effective to control ticks ([7]; 5 mg/kg, at least until Day 10, both administration routes (oral, subcutaneous)): 100%
- effective to control ticks ([7]; 5 mg/kg, for at least one week, both administration routes): 100%
- duration of efficacy, subcutaneous compared with oral administration ([7]; 5 mg/kg, ticks and bed bugs): longer duration of efficacy
- activity against bed bugs (≥80% inhibition, killed+damaged) ([8]; 5 mg/kg oral, Day 0): immediate activity
- activity against bed bugs (≥80% inhibition, killed+damaged) ([8]; 5 mg/kg oral, after 7 days): activity
- activity against bed bugs (≥80% inhibition, killed+damaged) ([8]; 5 mg/kg oral, after 10 days): activity
- activity against bed bugs (≥80% inhibition, killed+damaged) ([8]; 5 mg/kg oral, after 14 days): activity
- activity against bed bugs (≥80% inhibition, killed+damaged) ([8]; 5 mg/kg subcutaneous, Day 0): immediate activity
- activity against bed bugs (≥80% inhibition, killed+damaged) [8, 12]: activity
- activity against bed bugs (≥80% inhibition, killed+damaged) [8, 13]: activity
- activity against bed bugs (≥80% inhibition, killed+damaged) [8, 14]: activity
- activity against bed bugs (≥80% inhibition, killed+damaged) [8, 15]: activity
- effective to control bed bugs ([8]; at least until Day 10, both administration routes (oral, subcutaneous)): 100%
- effective to control bed bugs ([8]; for at least one week, both administration routes): 100%
- EC50 [9]: 10 to 25 nM
- inhibition at 1 ppm [10]: 80%
